Assay results published in patent US11155820B2, “Target of VGSC β3 protein for prevention, treatment and diagnostic detection of cancers” (SHENYANG PHARMACEUTICAL UNIVERSITY, priority 2014, dated 2021).

How the values were obtained:
[1] = tested on: hepatoma cell lines HepG2; assay: MTT assay of HepG2 cell proliferation after AGAP; format: cell-based; conditions: HepG2, 40 μM, 48 h incubation, control proteins
Protocol: The cell proliferation was measured by MTT assay:took the cells in good growth condition and in logarithmic growth phase, digested with conventional trypsin, and pipetted into a single cell suspension, after counting the blood cell with blood counting chamber, the concentration was adjusted to 10^5 cells/ml (HepG2 cells), then were inoculated into 96-well plates at 100 μl per well, while set the blank hole (only added 100 μl of culture medium, without cells); cultured in 5% CO2 incubator at 37° C. for 24 h, each well was added 0.5 mg/ml MTT, 100 μl, then continued to culture for 4 h, the supernatant was discarded and 150 μl of DMSO was added to each well. The mixture was incubated at low speed for 10 min on a micro shaker, and the absorbance of each well was measured at 490 nm using a microplate reader after the crystals were fully dissolved.
(§1) Analgesic antitumoral peptide (AGAP) at […] different concentrations (0, 5, 10, 15, 20, 25, 30, 35 and 40 μM) were incubated with hepatoma cell lines HepG2 (96 well plates, 10^4 cells/well, 24 h later, AGAP was administered at different concentrations as described above, at least 3 wells were repeated for each concentration) for 48 h, the amount of the VGSC β3 subunit expressed was then detected by Western blotting using the antibody in I.10. The cell proliferation level was measured using the MTT method.

VGSC β3 subunit = assay: Western blotting of VGSC β3 subunit in HepG2 cells after AGAP; format: cell-based, human; conditions: HepG2, 40 μM, 48 h incubation, control proteins
Protocol: as §1

Row | Substance | effect on cell proliferation [1] | effect on the expression of the VGSC β3 subunit (VGSC β3 subunit)
1 | bovine serum albumin | nor did it affect cell proliferation | no effect
2 | cytochrome C | nor did it affect cell proliferation | no effect
